Laboratory results: ChEMBL document CHEMBL1641373, “Trishomocubane as a scaffold for the development of selective dopamine transporter (DAT) ligands” (Bioorg Med Chem Lett, 2011)

Legend:
[1] = biological target: Sodium-dependent dopamine transporter (Homo sapiens, UniProt Q01959); test: Inhibition of DAT
[2] = biological target: Sodium-dependent noradrenaline transporter (Homo sapiens, UniProt P23975); test: Inhibition of NET
[3] = biological target: Sodium-dependent serotonin transporter (Homo sapiens, UniProt P31645); test: Inhibition of SERT
Sequence of Sodium-dependent serotonin transporter (P31645 whole entry): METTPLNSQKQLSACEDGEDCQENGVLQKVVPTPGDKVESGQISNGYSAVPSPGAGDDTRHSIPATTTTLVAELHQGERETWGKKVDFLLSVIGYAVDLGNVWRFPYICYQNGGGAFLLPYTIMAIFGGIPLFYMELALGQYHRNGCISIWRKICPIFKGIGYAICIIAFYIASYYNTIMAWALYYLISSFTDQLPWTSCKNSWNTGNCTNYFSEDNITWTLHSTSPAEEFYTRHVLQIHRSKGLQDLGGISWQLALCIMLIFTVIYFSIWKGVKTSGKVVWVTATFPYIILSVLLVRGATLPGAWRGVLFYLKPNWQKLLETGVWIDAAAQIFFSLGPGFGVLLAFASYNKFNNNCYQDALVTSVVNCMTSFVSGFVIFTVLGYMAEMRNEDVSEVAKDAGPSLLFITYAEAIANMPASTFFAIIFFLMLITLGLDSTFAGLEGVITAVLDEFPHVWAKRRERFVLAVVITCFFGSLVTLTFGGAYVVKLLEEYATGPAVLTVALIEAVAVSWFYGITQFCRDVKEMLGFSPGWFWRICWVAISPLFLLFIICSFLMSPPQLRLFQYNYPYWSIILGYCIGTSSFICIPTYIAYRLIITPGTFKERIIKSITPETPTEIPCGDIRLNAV

Sequence of Sodium-dependent dopamine transporter (Q01959 whole entry): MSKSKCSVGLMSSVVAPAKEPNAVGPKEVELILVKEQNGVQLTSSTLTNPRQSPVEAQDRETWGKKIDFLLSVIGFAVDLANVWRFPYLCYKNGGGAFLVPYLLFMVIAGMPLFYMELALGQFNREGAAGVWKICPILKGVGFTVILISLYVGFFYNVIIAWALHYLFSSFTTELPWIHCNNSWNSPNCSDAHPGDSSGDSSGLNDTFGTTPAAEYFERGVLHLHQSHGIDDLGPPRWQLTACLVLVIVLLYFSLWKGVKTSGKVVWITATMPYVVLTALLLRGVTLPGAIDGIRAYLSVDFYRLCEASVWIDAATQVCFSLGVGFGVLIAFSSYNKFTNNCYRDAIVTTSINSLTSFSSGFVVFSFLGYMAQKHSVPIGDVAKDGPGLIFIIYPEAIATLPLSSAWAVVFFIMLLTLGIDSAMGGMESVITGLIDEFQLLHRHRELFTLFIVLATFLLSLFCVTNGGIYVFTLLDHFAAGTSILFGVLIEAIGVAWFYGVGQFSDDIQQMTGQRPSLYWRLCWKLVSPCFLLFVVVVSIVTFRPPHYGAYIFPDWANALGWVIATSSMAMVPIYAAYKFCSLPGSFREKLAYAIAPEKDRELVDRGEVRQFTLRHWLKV
Sequence of Sodium-dependent noradrenaline transporter (P23975 whole entry): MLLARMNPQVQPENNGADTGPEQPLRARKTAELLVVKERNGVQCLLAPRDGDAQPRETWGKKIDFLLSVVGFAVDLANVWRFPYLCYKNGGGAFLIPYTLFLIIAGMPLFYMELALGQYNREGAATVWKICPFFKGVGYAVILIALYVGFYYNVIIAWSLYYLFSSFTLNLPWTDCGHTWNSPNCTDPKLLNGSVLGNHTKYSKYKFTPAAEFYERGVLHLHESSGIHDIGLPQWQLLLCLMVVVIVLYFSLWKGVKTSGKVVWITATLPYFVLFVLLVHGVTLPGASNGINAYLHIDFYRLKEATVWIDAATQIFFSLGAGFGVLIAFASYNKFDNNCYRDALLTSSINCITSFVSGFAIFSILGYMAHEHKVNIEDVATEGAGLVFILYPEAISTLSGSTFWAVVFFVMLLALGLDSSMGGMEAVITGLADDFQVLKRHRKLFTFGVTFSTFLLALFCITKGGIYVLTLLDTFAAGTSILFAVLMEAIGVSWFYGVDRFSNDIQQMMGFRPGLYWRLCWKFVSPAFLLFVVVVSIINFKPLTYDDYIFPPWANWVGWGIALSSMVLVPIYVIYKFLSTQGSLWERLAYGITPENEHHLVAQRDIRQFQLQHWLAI

Structure (SMILES): NCCN1[C@@H]2CC[C@H]1C[C@@H](NC(c1ccc(F)cc1)c1ccc(F)cc1)C2
- Ki [1]: 0.0125 µM

Structure (SMILES): COC(=O)[C@@H]1C2CCC(C[C@@H]1c1ccc(C)cc1)N2C/C=C/CF (some centres undefined)
- IC50 [1]: 0.0024 µM
- IC50 [2]: > 1 µM
- IC50 [3]: > 1 µM

Structure (SMILES): COC(=O)[C@H]1[C@@H](c2ccc(C)cc2)C[C@H]2CC[C@@H]1N2C/C=C/I
- Ki [1]: 0.017 µM
- Ki [2]: > 1 µM
- Ki [3]: 0.5 µM

Structure (SMILES): CN1[C@H]2CC[C@@H]1[C@@H](C(=O)N1CCCC1)[C@@H](c1ccc(I)cc1)C2
- IC50 [1]: 0.00037 µM
- IC50 [2]: 1.73 µM
- IC50 [3]: 0.991 µM

Structure (SMILES): CCCCC1=C(c2ccc(Cl)cc2)C2CCN1CC2
- Ki [1]: 0.014 µM

Structure (SMILES): CN(C)C[C@H]1C2CCC(CC2)[C@H]1c1ccc(Cl)c(Cl)c1
- Ki [1]: 0.0072 µM
- Ki [2]: 0.044 µM
- Ki [3]: 0.057 µM
